Broadly, the IC50 is the concentration that inhibits the measured activity by half. A lower IC50 goes with greater potency in that assay.

This passage reports IC50 and inhibition results from patent US9464062B2, “Disubstituted oxazolidin-2-ones 5-hydroxytryptamine receptor 2B activity modulators” (TEMPLE UNIVERSITY—OF THE COMMONWEALTH SYSTEM OF HIGHER …, priority 2012, dated 2016).

The target in this experiment is 5HT2B receptors (Homo sapiens (Human), UniProt P41595). In words: Radiolabel Binding Studies for Serotonin 5HT2B receptors, method 1 ([3H]LSD competition). As to conditions: for IC50: [3H]LSD radioligand; for inhibition at 10 µM: single concentration 10 uM, inhibition of [3H]LSD binding, read-out: 5-HT2B % inhib @10 uM. On the procedure: A solution of the compound of the disclosure to be tested is prepared as a 1-mg/ml stock in Assay Buffer (50 mM Tris-HCl, 10 mM MgCl2, 1 mM EDTA, pH 7.4) or DMSO according to its solubility. A 1-mg/ml stock of the reference compound 5-hydroxytryptamine (5-HT) is also prepared as a positive control. Eleven dilutions (5× assay concentration) of the compound of the disclosure and 5-HT are prepared in the Assay Buffer by serial dilution to yield final corresponding assay concentrations ranging from […].
Chain of 5HT2B receptors (P41595 whole entry): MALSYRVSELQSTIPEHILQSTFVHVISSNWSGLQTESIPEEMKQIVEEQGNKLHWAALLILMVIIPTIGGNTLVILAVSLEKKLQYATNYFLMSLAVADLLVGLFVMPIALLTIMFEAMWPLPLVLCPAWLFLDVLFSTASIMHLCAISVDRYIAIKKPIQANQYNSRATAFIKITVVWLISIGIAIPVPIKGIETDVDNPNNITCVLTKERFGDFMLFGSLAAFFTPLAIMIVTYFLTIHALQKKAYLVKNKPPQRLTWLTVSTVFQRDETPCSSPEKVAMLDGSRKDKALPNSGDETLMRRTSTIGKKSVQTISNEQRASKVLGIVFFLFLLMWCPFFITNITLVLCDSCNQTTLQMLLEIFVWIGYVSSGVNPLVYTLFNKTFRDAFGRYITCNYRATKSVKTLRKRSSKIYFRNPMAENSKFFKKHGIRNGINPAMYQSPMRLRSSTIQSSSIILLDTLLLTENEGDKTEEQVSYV
A stock concentration of 5 nM [^3H]LSD (lysergic acid diethyl amide) is prepared in Assay Buffer. Aliquots (50 μl) of radioligand are dispensed into the wells of a 96-well plate containing 100 μl of Assay Buffer. Duplicate 50-μl aliquots of the compound of the disclosure test and 5-HT positive control reference compound serial dilutions are added.
Membrane fractions of cells expressing recombinant 5HT2B receptors (50 μL) are dispensed into each well. The membranes are prepared from stably transfected c ell lines expressing 5HT2B receptors cultured on 10-cm plates by harvesting PBS-rinsed monolayers, resuspending and lysing the monolayers in chilled, hypotonic 50 mM Tris-HCl, pH 7.4, centrifuging at 20,000×g, decanting the supernatant and storing at −80° C. The membrane preparations are resuspended in 3 ml of chilled Assay Buffer and homogenized by several passages through a 26 gauge needle before use in the assay.
The 250-μl reactions are incubated at room temperature for 1.5 hours, then harvested by rapid filtration onto 0.3% polyethyleneimine-treated, 96-well filter mats using a 96-well Filtermate harvester. Four rapid 500-μl washes are performed with chilled Assay Buffer to reduce non-specific binding. The filter mats are dried, then scintillant is added to the filters and the radioactivity retained on the filters is counted in a scintillation counter.
Raw data (dpm) representing total radioligand binding (i.e., specific+non-specific binding) are plotted as a function of the logarithm of the molar concentration of the competitor (i.e., test or reference compound). Non-linear regression of the normalized (i.e., percent radioligand binding compared to that observed in the absence of test or reference compound) raw data is performed in […] (GraphPad Software, Inc.) using the built-in three parameter logistic model describing ligand competition binding to radioligand-labeled sites: y=bottom+[(top−bottom)/(1+[…])] where “bottom” is the residual radioligand binding measured in the presence of 10 μM reference compound (i.e., non-specific binding) and “top” is the total radioligand binding observed in the absence of competitor. The log IC50 (i.e., the log of the ligand concentration that reduces radioligand binding by 50%) is thus estimated from the data and used to obtain the Ki by applying the Cheng-Prusoff approximation: Ki=IC50/(1+[ligand]/KD) where “[ligand]” is the assay radioligand concentration and “KD” is the affinity constant of the radioligand for the target receptor.
Compounds of the disclosure are also screened at a single concentration of 10 μM using the same method described for the Radiolabel Binding Studies for Serotonin 5HT2B receptors, method 1 to determine the percent inhibition of [^3H]LSD binding.

Take `C=CCN1CC(CN2CCN(C(c3ccccc3)c3ccccc3)CC2)OC1=O` (stereo not shown) [Entry 1]: the IC50 was 126 nM and the inhibition at 10 µM was 91.1%. Consider `O=C1OC(CN2CCN(C(c3ccccc3)c3ccccc3)CC2)CN1C1CCCCC1` (stereo not shown) [Entry 2], for which the inhibition at 10 µM amounted to 91.4%.

Turning to `CC(C)N1CC(CN2CCN(C(c3ccccc3)c3ccccc3)CC2)OC1=O` (stereo not shown) [Entry 3], the IC50 came out at 274 nM and the inhibition at 10 µM came to 84.9%. For `O=C1OC(CN2CCN(C(c3ccccc3)c3ccccc3)CC2)CN1C1CCC1` (stereo not shown) [Entry 4], in that order: 190 nM and 87.3%.

Consider `O=C1OC(CN2CCN(C(c3ccccc3)c3ccccc3)CC2)CN1C1CCCC1` (stereo not shown) [Entry 5], for which the IC50 came out at 41 nM and the inhibition at 10 µM was 94.1%.

For `CC(C)(C)N1CC(CN2CCN(C(c3ccccc3)c3ccccc3)CC2)OC1=O` (stereo not shown) [Entry 6], the IC50 was 1870 nM and the inhibition at 10 µM is 59.3%. In the case of `O=C1OC(CN2CCN(C(c3ccccc3)c3ccccc3)CC2)CN1C1CC1` (stereo not shown) [Entry 7], the IC50 worked out at 298 nM and the inhibition at 10 µM was determined as 87.6%.
